# Target: T1, F508del (Homo sapiens, UniProt P13569, DEL508-508)
# T1 construct: expressed in transfected cells
# Assay: Protocol 1: membrane potential optical assay (FLIPR III, voltage sensing dye), identification of potentiator compounds
# Format: cell-based
# Details: Table 3, compounds of Table 1
# Procedure, shortened: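 Mouse NIH 3T3 fibroblasts stably expressing F508del, temperature-corrected at 27 °C for 24 h, pretreated with compound, then loaded with voltage-sensing redistribution dye. Forskolin was added in a single step with a chloride gradient (chloride-free gluconate bath; Bath Solution #1 HEPES pH 7.4). Membrane-potential fluorescence read on FLIPR III.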
# T1 sequence (P13569 with tags, fused parts or gaps DEL508-508): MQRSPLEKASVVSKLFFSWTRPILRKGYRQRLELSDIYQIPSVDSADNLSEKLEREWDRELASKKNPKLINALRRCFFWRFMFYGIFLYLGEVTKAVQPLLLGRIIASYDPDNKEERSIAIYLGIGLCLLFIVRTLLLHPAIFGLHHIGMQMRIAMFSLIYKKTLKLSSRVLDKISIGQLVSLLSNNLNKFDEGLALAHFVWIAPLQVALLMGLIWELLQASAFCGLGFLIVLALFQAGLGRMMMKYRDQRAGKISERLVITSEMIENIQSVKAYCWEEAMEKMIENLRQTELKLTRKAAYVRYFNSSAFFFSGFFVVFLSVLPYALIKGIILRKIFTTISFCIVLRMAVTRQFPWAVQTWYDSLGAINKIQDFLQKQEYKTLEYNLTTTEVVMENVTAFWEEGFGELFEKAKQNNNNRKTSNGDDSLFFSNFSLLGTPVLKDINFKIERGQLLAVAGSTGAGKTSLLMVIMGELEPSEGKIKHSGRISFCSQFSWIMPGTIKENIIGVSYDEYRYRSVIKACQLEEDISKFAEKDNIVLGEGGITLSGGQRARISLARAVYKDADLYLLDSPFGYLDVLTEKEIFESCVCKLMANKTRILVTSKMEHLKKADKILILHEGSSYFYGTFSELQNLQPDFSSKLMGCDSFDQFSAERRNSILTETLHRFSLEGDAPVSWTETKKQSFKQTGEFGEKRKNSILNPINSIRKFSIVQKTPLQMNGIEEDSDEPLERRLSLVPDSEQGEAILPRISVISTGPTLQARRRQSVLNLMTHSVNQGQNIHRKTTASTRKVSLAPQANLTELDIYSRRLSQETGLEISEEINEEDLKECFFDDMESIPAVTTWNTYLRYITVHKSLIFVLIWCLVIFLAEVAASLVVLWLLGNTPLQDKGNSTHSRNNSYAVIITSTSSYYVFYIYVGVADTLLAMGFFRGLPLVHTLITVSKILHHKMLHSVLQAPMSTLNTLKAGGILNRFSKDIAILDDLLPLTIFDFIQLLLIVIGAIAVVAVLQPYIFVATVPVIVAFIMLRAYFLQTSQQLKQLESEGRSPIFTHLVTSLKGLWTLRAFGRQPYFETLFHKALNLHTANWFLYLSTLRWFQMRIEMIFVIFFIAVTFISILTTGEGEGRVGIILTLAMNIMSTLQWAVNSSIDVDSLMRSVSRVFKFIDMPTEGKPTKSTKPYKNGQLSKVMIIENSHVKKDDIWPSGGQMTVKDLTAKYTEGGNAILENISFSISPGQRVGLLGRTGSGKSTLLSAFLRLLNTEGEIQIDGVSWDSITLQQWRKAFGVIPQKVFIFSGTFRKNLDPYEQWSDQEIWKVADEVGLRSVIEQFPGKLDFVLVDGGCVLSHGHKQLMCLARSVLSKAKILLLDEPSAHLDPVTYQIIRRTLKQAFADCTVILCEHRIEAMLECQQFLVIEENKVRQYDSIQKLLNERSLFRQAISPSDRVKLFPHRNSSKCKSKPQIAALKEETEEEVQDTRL
row,EC30,Compound
1,+++ (“+++” means <3 uM),"Cc1ccc(Oc2nc(-c3cc(F)cc(OC(C)C)c3)ccc2C(=O)NS(=O)(=O)c2cccc(N)n2)c(C)c1 [Compound 1150, N-[(6-amino-2-pyridyl)sulfonyl]-2-(2,4-dimethylphenoxy)-6-(3-fluoro-5-isopropoxy-phenyl)pyridine-3-carboxamide]"
2,++ (“++” means between 3 uM and 10 uM),"COc1ccc(F)cc1-c1ccc(C(=O)NS(=O)(=O)c2ccc[nH]c2=O)c(Oc2c(C)cc(C)cc2C)n1 [Compound 1151, 6-(5-fluoro-2-methoxy-phenyl)-N-[(2-oxo-1H-pyridin-3-yl)sulfonyl]-2-(2,4,6-trimethylphenoxy)pyridine-3-carboxamide]"
3,+ (“+” means greater than 10 uM),"CC1(Cn2nc(C(C)(C)C)cc2C(=O)NS(=O)(=O)c2cccc(N)c2)CCCCC1 [Compound 1152, N-(3-aminophenyl)sulfonyl-5-tert-butyl-2-[(1-methylcyclohexyl)methyl]pyrazole-3-carboxamide]"
4,+++ (“+++” means <3 uM),"COc1nc(C)ccc1S(=O)(=O)NC(=O)c1ccc(C(C)(C)C)nc1Oc1c(C)cc(C)cc1C [Compound 1153, 6-tert-butyl-N-[(2-methoxy-6-methyl-3-pyridyl)sulfonyl]-2-(2,4,6-trimethylphenoxy)pyridine-3-carboxamide]"
5,+++ (“+++” means <3 uM),"CCCc1ccc2c(c1)cc(C(=O)NS(=O)(=O)c1cccc(N)n1)n2Cc1c(C)cc(C)cc1C [Compound 1158, N-[(6-amino-2-pyridyl)sulfonyl]-5-propyl-1-[(2,4,6-trimethylphenyl)methyl]indole-2-carboxamide]"
6,+++ (“+++” means <3 uM),"Cc1cc(OCC(C)(C)C)ncc1-c1ccc(C(=O)NS(=O)(=O)c2cccc(N)n2)c(N2CC(C)CC2(C)C)n1 (centres unmarked) [Compound 1160, N-[(6-amino-2-pyridyl)sulfonyl]-6-[6-(2,2-dimethylpropoxy)-4-methyl-3-pyridyl]-2-(2,2,4-trimethylpyrrolidin-1-yl)pyridine-3-carboxamide]"
7,+++ (“+++” means <3 uM),"COc1cccc2c1CN(Cc1c(C)cc(C)cc1C)C2(C)C(=O)NS(=O)(=O)c1cccc(N)n1 (centres unmarked) [Compound 1161, N-[(6-amino-2-pyridyl)sulfonyl]-4-methoxy-1-methyl-2-[(2,4,6-trimethylphenyl)methyl]isoindoline-1-carboxamide]"
8,+++ (“+++” means <3 uM),"Cc1cc(C)c(Oc2nc(-c3ccc(OC(C)C)nc3)ccc2C(=O)NS(=O)(=O)c2cccc(N)n2)c(C)c1 [Compound 1163, N-[(6-amino-2-pyridyl)sulfonyl]-6-(6-isopropoxy-3-pyridyl)-2-(2,4,6-trimethylphenoxy)pyridine-3-carboxamide]"
9,++ (“++” means between 3 uM and 10 uM),"COC1CCN(c2nc(C(C)(C)C)ccc2C(=O)NS(=O)(=O)c2cccc(N)n2)CC1 [Compound 1164, N-[(6-amino-2-pyridyl)sulfonyl]-6-tert-butyl-2-(4-methoxy-1-piperidyl)pyridine-3-carboxamide]"
10,+++ (“+++” means <3 uM),"Cc1cc(C)c(Cn2nc(C(C)(C)C)cc2C(=O)NS(=O)(=O)c2ccccc2N)c(C)c1 [Compound 1167, N-(2-aminophenyl)sulfonyl-5-tert-butyl-2-[(2,4,6-trimethylphenyl)methyl]pyrazole-3-carboxamide]"
11,++ (“++” means between 3 uM and 10 uM),"CC#Cc1ccc(C(=O)NS(=O)(=O)c2cccc(N)n2)c(Oc2c(C)cc(C)cc2C)n1 [Compound 1172, N-[(6-amino-2-pyridyl)sulfonyl]-6-prop-1-ynyl-2-(2,4,6-trimethylphenoxy)pyridine-3-carboxamide]"
12,+++ (“+++” means <3 uM),"COc1ccccc1-c1ccc(C(=O)NS(=O)(=O)c2cccc(N)n2)c(Oc2c(C)cc(C)cc2C)n1 [Compound 1173, N-[(6-amino-2-pyridyl)sulfonyl]-6-(2-methoxyphenyl)-2-(2,4,6-trimethylphenoxy)pyridine-3-carboxamide]"
13,+++ (“+++” means <3 uM),"Cc1ccc(-c2nc(C(C)(C)C)ccc2C(=O)NS(=O)(=O)c2ccccc2O)cc1 [Compound 1175, 6-tert-butyl-N-(2-hydroxyphenyl)sulfonyl-2-(p-tolyl)pyridine-3-carboxamide]"
14,++ (“++” means between 3 uM and 10 uM),"Cc1cc(C)c(Oc2nc(-c3cnn(CC(C)C)c3)ccc2C(=O)NS(=O)(=O)c2cccc(N)n2)c(C)c1 [Compound 1177, N-[(6-amino-2-pyridyl)sulfonyl]-6-(1-isobutylpyrazol-4-yl)-2-(2,4,6-trimethylphenoxy)pyridine-3-carboxamide]"
15,+++ (“+++” means <3 uM),"COc1ccc(F)c(-c2ccc(C(=O)NS(=O)(=O)c3cccc(N)n3)c(Oc3c(C)cc(C)cc3C)n2)c1 [Compound 1178, N-[(6-amino-2-pyridyl)sulfonyl]-6-(2-fluoro-5-methoxy-phenyl)-2-(2,4,6-trimethylphenoxy)pyridine-3-carboxamide]"

row,Compound,EC30
1,"CC(C)(C)c1ccc(C(=O)NS(=O)(=O)c2cccc(N)n2)c(OC2CCC2)n1 [Compound 1154, N-[(6-amino-2-pyridyl)sulfonyl]-6-tert-butyl-2-(cyclobutoxy)pyridine-3-carboxamide]",++ (“++” means between 3 uM and 10 uM)
2,"CCOC1CCN(c2nc(-c3cc(F)cc(OCC(C)C)c3)ccc2C(=O)NS(=O)(=O)c2ccn[nH]2)CC1 [Compound 1155, 2-(4-ethoxy-1-piperidyl)-6-(3-fluoro-5-isobutoxy-phenyl)-N-(1H-pyrazol-5-ylsulfonyl)pyridine-3-carboxamide]",++ (“++” means between 3 uM and 10 uM)
3,"CC(C)COc1cc(F)cc(-c2ccc(C(=O)NS(=O)(=O)c3cccc(N)n3)c(N3CCC(C)(C)C3C)n2)c1 (centres unmarked) [Compound 1156, N-[(6-amino-2-pyridyl)sulfonyl]-6-(3-fluoro-5-isobutoxy-phenyl)-2-(2,3,3-trimethylpyrrolidin-1-yl)pyridine-3-carboxamide]",+++ (“+++” means <3 uM)
4,"CC(C)COc1cc(F)cc(-c2ccc(C(=O)NS(=O)(=O)c3cccc(N)n3)c(N(CC3CC3)C(C)C)n2)c1 [Compound 1157, N-[(6-amino-2-pyridyl)sulfonyl]-2-[cyclopropylmethyl(isopropyl)amino]-6-(3-fluoro-5-isobutoxy-phenyl)pyridine-3-carboxamide]",+++ (“+++” means <3 uM)
5,"CC(C)COc1cc(F)cc(-c2ccc(C(=O)NS(=O)(=O)c3cccnc3N)c(N3[C@H](C)CC[C@@H]3C)n2)c1 [Compound 1159, N-[(2-amino-3-pyridyl)sulfonyl]-2-[(2S,5R)-2,5-dimethylpyrrolidin-1-yl]-6-(3-fluoro-5-isobutoxy-phenyl)pyridine-3-carboxamide]",+++ (“+++” means <3 uM)
6,"C=C1CCN(c2nc(-c3cc(F)cc(OCC(C)C)c3)ccc2C(=O)NS(=O)(=O)c2cccc(N)n2)CC1 [Compound 1162, N-[(6-amino-2-pyridyl)sulfonyl]-6-(3-fluoro-5-isobutoxy-phenyl)-2-(4-methylene-1-piperidyl)pyridine-3-carboxamide]",+++ (“+++” means <3 uM)
7,"CC(C)COc1cc(F)cc(-c2ccc(C(=O)NS(=O)(=O)c3cccc(N)n3)c(OC(C)C3CC3)n2)c1 (centres unmarked) [Compound 1165, N-[(6-amino-2-pyridyl)sulfonyl]-2-(1-cyclopropylethoxy)-6-(3-fluoro-5-isobutoxy-phenyl)pyridine-3-carboxamide]",++ (“++” means between 3 uM and 10 uM)
8,"CC(C)COc1cc(F)cc(-c2ccc(C(=O)NS(=O)(=O)c3cccc(N)n3)c(N3[C@H](C)CCC3(C)C)n2)c1 [Compound 1166, N-[(6-amino-2-pyridyl)sulfonyl]-6-(3-fluoro-5-isobutoxy-phenyl)-2-[(5R)-2,2,5-trimethylpyrrolidin-1-yl]pyridine-3-carboxamide]",+++ (“+++” means <3 uM)
9,"CC(C)COc1cc(F)cc(-c2ccc(C(=O)NS(=O)(=O)c3nc(N)cs3)c(N3CCC(C)(C)CC3)n2)c1 [Compound 1168, N-(4-aminothiazol-2-yl)sulfonyl-2-(4,4-dimethyl-1-piperidyl)-6-(3-fluoro-5-isobutoxy-phenyl)pyridine-3-carboxamide]",+++ (“+++” means <3 uM)
10,"CC(C)COc1cc(F)cc(-c2ccc(C(=O)NS(=O)(=O)c3ccn[nH]3)c(N3CCCC(C)C3C)n2)c1 (centres unmarked) [Compound 1169, 2-(2,3-dimethyl-1-piperidyl)-6-(3-fluoro-5-isobutoxy-phenyl)-N-(1H-pyrazol-5-ylsulfonyl)pyridine-3-carboxamide]",++ (“++” means between 3 uM and 10 uM)
11,"CC(C)COc1cc(F)cc(-c2ccc(C(=O)NS(=O)(=O)c3cccc(N)n3)c(N3CCC[C@@H]3C(C)(C)C)n2)c1 [Compound 1170, N-[(6-amino-2-pyridyl)sulfonyl]-2-[(2R)-2-tert-butylpyrrolidin-1-yl]-6-(3-fluoro-5-isobutoxy-phenyl)pyridine-3-carboxamide]",+++ (“+++” means <3 uM)
12,"COc1cccc(S(=O)(=O)NC(=O)c2ccc(-c3cc(F)cc(OCC(C)C)c3)nc2N2CC(C)CC2(C)C)c1 (centres unmarked) [Compound 1171, 6-(3-fluoro-5-isobutoxy-phenyl)-N-(3-methoxyphenyl)sulfonyl-2-(2,2,4-trimethylpyrrolidin-1-yl)pyridine-3-carboxamide]",+++ (“+++” means <3 uM)
13,"CC(C)COc1cc(F)cc(-c2ccc(C(=O)NS(=O)(=O)c3ccn[nH]3)c(N3CCC(C)C(C)(C)C3)n2)c1 (centres unmarked) [Compound 1174, 6-(3-fluoro-5-isobutoxy-phenyl)-N-(1H-pyrazol-5-ylsulfonyl)-2-(3,3,4-trimethyl-1-piperidyl)pyridine-3-carboxamide]",+++ (“+++” means <3 uM)
14,"CC(C)COc1cc(F)cc(-c2ccc(C(=O)NS(=O)(=O)c3ccn[nH]3)c(N3C[C@H](C)CC3(C)C)n2)c1 [Compound 1176, 6-(3-fluoro-5-isobutoxy-phenyl)-N-(1H-pyrazol-5-ylsulfonyl)-2-[(4R)-2,2,4-trimethylpyrrolidin-1-yl]pyridine-3-carboxamide]",+++ (“+++” means <3 uM)

# Source: US10758534B2 (Vertex Pharmaceuticals Incorporated, priority 2014, dated 2020)
